US9695155B2, “Herbicidal substituted pyrimidinyloxy benzene compounds” (E. I. DU PONT DE NEMOURS AND COMPANY, priority 2013, dated 2017)

How the values were obtained:
barnyardgrass = experiment: Test B flooded paddy test; type: in vivo, Echinochloa crus-galli; conditions: Flood, 250 g ai/ha; 0 to 100 scale where 0 is no effect and 100 is complete control
Procedure, shortened: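 Evaluation is visual, against untreated controls, 13 to 15 days after treatment. Before treatment, plants reached the 2-leaf stage; pots were then flooded 3 cm deep, compound was added to the water, and that level was maintained. Ratings run 0 to 100, with 100 meaning complete control.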

wheat = experiment: Test A postemergence; type: in vivo, Triticum aestivum; conditions: 0 to 100 scale where 0 is no effect and 100 is complete control
Procedure, shortened: (§1)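 Greenhouse pot test, loam/sand soil. Formulation: non-phytotoxic solvent mix plus surfactant. Pre: directed spray onto soil after sowing. Post: plants at 1–2 leaf, 2–10 cm. Rated visually vs untreated controls at ~10 d, 0 (no effect) to 100 (complete control).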

blackgrass = experiment: Test A postemergence; type: in vivo, Alopecurus myosuroides; conditions: 0 to 100 scale where 0 is no effect and 100 is complete control
Procedure, shortened: as §1

large (Lg) crabgrass = experiment: Test C preemergence; type: in vivo, Digitaria sanguinalis; conditions: for Crabgrass, Large plant response rating: preemergence; for Plant response rating, Crabgrass, Large: Preemergence, 31 g ai/ha, scale 0 to 100, 0 no effect, 100 complete control
Procedure, shortened: (§2)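 Plants were kept under greenhouse conditions for 13–15 days following spray. Pre-emergent application went to soil (loam–sand), post-emergent to foliage at 1–4 leaves. Evaluation: visual, percent control against untreated checks.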

giant foxtail = experiment: Test A preemergence; type: in vivo, Setaria faberii; conditions: for Plant response rating, Foxtail, Giant: 125 g ai/ha; for Foxtail, Giant plant response rating: 500 g ai/ha
Procedure, shortened: as §1

ragweed [1] = experiment: Test A preemergence; type: in vivo, Ambrosia elatior; conditions: 0 to 100 scale where 0 is no effect and 100 is complete control
Procedure, shortened: as §1

pigweed = experiment: Test A preemergence; type: in vivo, Amaranthus retroflexus; conditions: for Plant response rating, Pigweed: 125 g ai/ha; for Pigweed plant response rating: 500 g ai/ha
Procedure, shortened: as §1

ragweed [2] = experiment: Test A postemergence; type: in vivo, Ambrosia elatior; conditions: 0 to 100 scale where 0 is no effect and 100 is complete control
Procedure, shortened: as §1

Italian ryegrass = experiment: Test C preemergence; type: in vivo, Lolium multiflorum; conditions: for Ryegrass, Italian plant response rating: preemergence; for Plant response rating, Ryegrass, Italian: Preemergence, 31 g ai/ha, scale 0 to 100, 0 no effect, 100 complete control
Procedure, shortened: as §2

velvetleaf = experiment: Test A postemergence; type: in vivo, Abutilon theophrasti; conditions: 0 to 100 scale where 0 is no effect and 100 is complete control
Procedure, shortened: as §1

wild oat = experiment: Test C postemergence; type: in vivo, Avena fatua; conditions: for Plant response rating (0 to 100), Oat, Wild: 125 g ai/ha, postemergence; for Plant response rating, Oat, Wild: Postemergence, scale 0 to 100 (0 no effect, 100 complete control)
Procedure, shortened: as §2

chickweed = experiment: Test C postemergence; type: in vivo, Stellaria media; conditions: for Chickweed plant response rating: 16 g ai/ha, visual rating; for Chickweed plant response rating / Plant response rating (0 to 100), Chickweed: postemergence; for Chickweed plant response rating / Plant response rating, Chickweed: scale 0 to 100 (0 no effect, 100 complete control); for Plant response rating (0 to 100), Chickweed: 125 g ai/ha; for Plant response rating, Chickweed: Postemergence
Procedure, shortened: as §2

kochia = experiment: Test C postemergence; type: in vivo, Kochia scoparia; conditions: for Kochia plant response rating: 16 g ai/ha, visual rating; for Kochia plant response rating / Plant response rating (0 to 100), Kochia: postemergence; for Kochia plant response rating / Plant response rating, Kochia: scale 0 to 100 (0 no effect, 100 complete control); for Plant response rating (0 to 100), Kochia: 125 g ai/ha; for Plant response rating, Kochia: Postemergence
Procedure, shortened: as §2

wheat, winter = experiment: Test C postemergence; type: in vivo, Triticum aestivum; conditions: for Plant response rating (0 to 100), Wheat: 125 g ai/ha, postemergence; for Plant response rating, Wheat: Postemergence, scale 0 to 100 (0 no effect, 100 complete control)
Procedure, shortened: as §2

morningglory = experiment: Test A preemergence; type: in vivo, Ipomoea spp.; conditions: for Plant response rating, Morningglory: 125 g ai/ha, 0 to 100 scale where 0 is no effect and 100 is complete control; for Morningglory plant response rating: 500 g ai/ha, 0 to 100 scale, 0 no effect, 100 complete control, approx. 10 days
Procedure, shortened: as §1

[3] = 8 g ai/ha, scale 0 to 100 (0 no effect, 100 complete control)
[4] = 16 g ai/ha, scale 0 to 100 (0 no effect, 100 complete control)
[5] = 62 g ai/ha, scale 0 (no effect) to 100 (complete control)
[6] = 0 to 100 scale where 0 is no effect and 100 is complete control
[7] = 125 g ai/ha, scale 0 (no effect) to 100 (complete control)
[8] = 0 to 100 scale, 0 no effect, 100 complete control, approx. 10 days

SMILES | Plant response rating, Barnyardgrass (barnyardgrass) | Plant response rating, Wheat (wheat; 500 g ai/ha) | Crabgrass, Large plant response rating (large (Lg) crabgrass; [4]) | Crabgrass, Large plant response rating (large (Lg) crabgrass; [5]) | Plant response rating, Crabgrass, Large (large (Lg) crabgrass) | Plant response rating, Foxtail, Giant (giant foxtail; [6]) | Plant response rating, Pigweed (pigweed; [6]) | Ryegrass, Italian plant response rating (Italian ryegrass; [4]) | Ryegrass, Italian plant response rating (Italian ryegrass; [5]) | Plant response rating, Ryegrass, Italian (Italian ryegrass) | Plant response rating, Wheat (wheat; 125 g ai/ha) | Plant response rating, Velvetleaf (velvetleaf; 125 g ai/ha) | Plant response rating, Velvetleaf (velvetleaf; 500 g ai/ha) | Plant response rating (0 to 100), Oat, Wild (wild oat) | Plant response rating, Oat, Wild (wild oat; 31 g ai/ha, 13 to 15 days) | Plant response rating, Oat, Wild (wild oat; 62 g ai/ha) | Chickweed plant response rating (chickweed; 13 to 15 days) | Plant response rating (0 to 100), Chickweed (chickweed) | Plant response rating, Chickweed (chickweed; 31 g ai/ha, 13 to 15 days) | Plant response rating, Chickweed (chickweed; 62 g ai/ha) | further results
N#Cc1cnn(-c2c(C#N)cccc2Oc2ncc(Br)cn2)c1 [Compound 135] | 30 | 60 | 60 | 100 | 100 | 70 | 100 | 0 | 10 | 5 |  |  |  |  |  |  |  |  |  |  | Wheat plant response rating (wheat; 125 g ai/ha): 10; Blackgrass plant response rating (blackgrass; 125 g ai/ha): 30; Plant response rating, Blackgrass (blackgrass; 500 g ai/ha): 90; Crabgrass, Large plant response rating (large (Lg) crabgrass; [3]): 45; Foxtail, Giant plant response rating (giant foxtail; [6]): 100; Plant response rating, Ragweed (ragweed [1]; 125 g ai/ha): 90; Ragweed plant response rating (ragweed [1]; 500 g ai/ha): 90; Pigweed plant response rating (pigweed; [6]): 100; Ragweed plant response rating (ragweed [2]; 125 g ai/ha): 60; Plant response rating, Ragweed (ragweed [2]; 500 g ai/ha): 100; Ryegrass, Italian plant response rating (Italian ryegrass; [3]): 0
Fc1cnc(Oc2cccc(C(F)F)c2-n2cc(Cl)cn2)nc1 [Compound 94] | 0 | 50 | 25 | 100 | 98 | 100 | 100 | 0 | 10 | 0 | 0 | 90 | 100 | 5 | 0 | 0 | 10 | 70 | 60 | 60 | Kochia plant response rating (kochia; 13 to 15 days): 30; Plant response rating (0 to 100), Kochia (kochia): 90; Plant response rating, Kochia (kochia; 31 g ai/ha, 13 to 15 days): 80; Plant response rating, Kochia (kochia; 62 g ai/ha): 90; Crabgrass, Large plant response rating (large (Lg) crabgrass; [7]): 100; Foxtail, Giant plant response rating (giant foxtail; [8]): 100; Pigweed plant response rating (pigweed; [8]): 100; Plant response rating (0 to 100), Wheat (wheat, winter): 0; Plant response rating, Wheat (wheat, winter; 31 g ai/ha, 13 to 15 days): 0; Plant response rating, Wheat (wheat, winter; 62 g ai/ha): 0; Plant response rating, Morningglory (morningglory): 40; Morningglory plant response rating (morningglory): 90; Ryegrass, Italian plant response rating (Italian ryegrass; [7]): 50
N#Cc1cccc(Oc2ncc(Cl)cn2)c1-n1cc(OC(F)F)cn1 [Compound 97] | 40 | 70 | 98 | 100 | 100 | 100 | 100 | 0 | 85 | 60 | 50 | 100 | 100 | 25 | 10 | 15 | 70 | 90 | 60 | 80 | Kochia plant response rating (kochia; 13 to 15 days): 80; Plant response rating (0 to 100), Kochia (kochia): 100; Plant response rating, Kochia (kochia; 31 g ai/ha, 13 to 15 days): 90; Plant response rating, Kochia (kochia; 62 g ai/ha): 95; Crabgrass, Large plant response rating (large (Lg) crabgrass; [7]): 100; Foxtail, Giant plant response rating (giant foxtail; [8]): 100; Pigweed plant response rating (pigweed; [8]): 100; Plant response rating (0 to 100), Wheat (wheat, winter): 10; Plant response rating, Wheat (wheat, winter; 31 g ai/ha, 13 to 15 days): 5; Plant response rating, Wheat (wheat, winter; 62 g ai/ha): 5; Plant response rating, Morningglory (morningglory): 100; Morningglory plant response rating (morningglory): 100; Ryegrass, Italian plant response rating (Italian ryegrass; [7]): 90
